# Values of other authors in PMC4287963 (Inorganic chemistry, 2009).
# Settings: Cu(II) complex of TETA; cited from earlier work
smiles,measurement,value
O=C(O)CN1CCCN(CC(=O)O)CCN(CC(=O)O)CCCN(CC(=O)O)CC1 [TETA],thermodynamic formation constant log K,21.9
